# Test results taken from ChEMBL document CHEMBL1121894, “Studies on phenethylamine hallucinogens. 2. Conformations of arylmethoxyl groups using 13C NMR” (1981).
# Calls of active or inactive are those of the source. The calls are words filed in the database; no cut-off is given here.
# Species on record: Homo sapiens
# Test: Psychotomimetic potency expressed as the effective dose of mescaline divided by the effective dose in human
# Assay type: functional
row,Compound,Potency [MU]
1,COc1ccc(CC(C)N)cc1.Cl (stereo unspecified),5
2,COc1c(CCN)ccc2c1OCO2.Cl,5
3,COc1cc(OC)c(CC(C)N)c(OC)c1.Cl (stereo unspecified),10
4,COc1ccc(OC)c(CC(C)N)c1.Cl (stereo unspecified),8
5,COc1c(CC(C)N)ccc2c1OCO2.Cl (stereo unspecified),10
6,COc1cc(OC)c(OC)cc1CC(C)N.Cl (stereo unspecified),17
7,COc1cc(CC(C)N)c(OC)cc1C.Cl (stereo unspecified),80
8,COc1cc(CC(C)N)cc(OC)c1OC.Cl (stereo unspecified),2.2
9,COc1cc(CCN)cc(OC)c1OC.Cl,1

# Species on record: Homo sapiens
# Test: Psychotomimetic potency expressed as the effective dose of mescaline divided by the effective dose in human; Inactive
# Assay type: functional, organism-based
row,Compound,Potency
1,COc1ccc(CC(C)N)c(OC)c1OC (stereo unspecified),inactive
2,COc1ccc(CCN)c(OC)c1OC,inactive
